Laboratory results from patent US11149068B2, “Pore-forming peptides and uses thereof” (The Administrators of the Tulane Educational Fund, priority 2018, dated 2021).
Ends that are not written are not given here.

Tests used:
[1] = Macromolecular leakage assay (release of 40 kDa TAMRA-biotin-dextran from lipid vesicles); assay type: biochemical; conditions: for dextran release at pH 7: peptide to lipid ratios as high as 1:50
Method: (§1) Large unilamellar vesicles for leakage assays were prepared as previously described (37) in 100 mM potassium chloride, with 10 mM sodium phosphate or 10 mM sodium acetate buffer. For small molecule leakage, lipids, dried from chloroform, were resuspended in buffer made of: 12.5 mM ANTS, 45 mM DPX, 5 mM HEPES, and 20 mM sodium chloride. For macromolecular leakage assays, lipids were resuspended in buffer with 1 mg/ml TAMRA-biotin-dextran (TBD). Lipid suspensions were frozen and thawed ten times and then extruded 10 times using a 0.1 um pore size Nuclepore polycarbonate filter (38). After extrusion, external ANTS and DPX were removed by gel filtration with Sephadex G100. External TBD was removed using streptavidin agarose resin.
As described previously (33), 40 nM Alexafluor488-labelled streptavidin (SA) was added to a solution of vesicles with entrapped TBD. This solution was added to wells of a 96-well plate containing peptide, and the plate was incubated for 60 min. Release of the 40 kDa dextran enables TBD-SA complex formation, which leads to quenching of the AF488 fluorescence (excitation 495 nm, emission at 519 nm) by TAMRA. The fraction of macromolecule leakage was determined by Equation 2:
[formula] where I is the intensity at 60 min, Ibackground is the intensity of a vesicle control with no peptide, and Itriton is the intensity in the presence of vesicles and 0.1% v/v of the detergent Triton X-100, added to solubilize the vesicles and release the ANTS.
Step 4: Next, to the same wells, a different preparation of vesicles was added. These vesicles have entrapped 40 kDa TBD and external Alexafluor488 streptavidin. The TBD vesicles were in sodium acetate buffer at pH 4 so that the final pH in each well was 5.0. This second addition of vesicles increased the total volume to 200 μl which decreased peptide to 2.5 μM and decreased ANTS vesicle concentration to 0.5 mM. The new TBD vesicles were present at 1.5 mM so that the total peptide to total lipid ratio was roughly about 1:800.
Step 5: After 60 minutes, the intensity of the AF488-streptavidin was measured to quantitate macromolecule release, which is calculated with equation 2. This orthogonal and sequential screen gives two measurements that are used to identify peptides with the desired properties: i) Small molecule release at pH 7 and P:L=1:200; ii) Macromolecule release at pH 5 and P:L=1:800.
Verification of positive peptides. Since the selected peptides are very similar to each other, a subset of them were synthesized and purified for detailed validation. Tested peptides included four representative sequences with five acidic residues, pHD24, pHD34, pHD108 and pHD118 as well as pHD15, one of the two with six acidic residues. Because there is interest in pH-triggered macromolecule release at low pH, the positive peptides were validated with the macromolecular release assay using 40 kDa dextran and 53 kD streptavidin, described above. Dextran leakage was measured as functions of peptide concentration and pH using vesicles made from phosphatidylcholine lipids.

[2] = Small molecule leakage assay (ANTS/DPX release from lipid vesicles); assay type: biochemical; conditions: screen conditions
Method: as §1, with “External TBD was removed using streptavidin agarose resin.” left out
Lipid vesicles with entrapped ANTS and DPX were diluted into wells of a 96 well plate containing peptide. After 30 minutes, vesicle permeabilization was measured by an increase in ANTS fluorescence, with excitation at 350 nm and emission at 519 nm. Fractional leakage was quantified using Equation 1: […]
Step 2: Aliquots of peptides in water from the plate in Step 1 were added to wells of a second plate, followed by addition of 1 mM lipid vesicles in 100 μl of sodium phosphate buffer at pH 7. […] Leakage, if it occurs, causes an increase in fluorescence of ANTS. […]
Step 3: After 30 minutes of incubation, ANTS fluorescence was measured for each well to quantitate small molecule release using equation 1.

[3] = Circular dichroism spectroscopy of peptide secondary structure in the presence of vesicles versus pH; assay type: physicochemical; conditions: P:L=1:200
Method: FIGS. 5A-5B are graphs depicting example binding and folding data. FIG. 5A: Circular dichroism spectra of pHD108 (SEQ ID NO: 9) versus pH at P:L=1:200 in 1 mM POPC vesicles. Separate samples are made at each pH and equilibrated for 30 minutes prior to the measurement. The spectra show a structural transition from random coil at pH 7 to classical α-helix at pH<5.75. FIG. 5B: Tryptophan fluorescence spectra of pHD108 at P:L=1:200 in 1 mM POPC vesicles. Separate samples are made at each pH and equilibrated for 30 minutes prior to the measurement. The spectra show a transition from a more polar, water-exposed environment to a less polar or buried environment consistent with peptide partitioning into bilayers.
Peptide secondary structure in the presence of vesicles as a function of pH was studied by circular dichroism spectroscopy. Example CD spectra for pHD108 at P:L=1:200 are seen in FIG. 5A and show a pH-triggered transition from random coil to α-helical structure with an effective pKa around 5.5. Circular dichroism was measured in a JASCO 810 spectropolarimeter. Samples in buffers of various pH were prepared by mixing peptide and vesicle solutions, each prepared at the needed pH. Spectra were collected on samples of 2 mM vesicles and 10 μM peptide in 1 mm path rectangular quartz cuvette after 1 hour of equilibration.

[4] = tested on: Chinese Hamster Ovary cells; assay: Cell viability, Alamar Blue assay; assay type: cell-based; conditions: ten minutes with peptide at pH 5 or pH 7, overnight recovery; except at the highest concentration
Method: FIGS. 7A-7B are graphs showing the effect of peptides on the viability Chinese Hamster Ovary cells incubated with either the lytic peptide MelP5, or the pH-triggerred membrane permeabilizing peptide pHD108. Cells were grown to 50% confluency, and then treated for ten minutes with peptide in cell culture media at pH 5 (FIG. 7A) or at pH 7 (FIG. 7B). Full media with growth factors was added and the cells recovered overnight. Viability was assessed with the Alamar Blue assay. The values were normalized to cells treated with media only (negative control) and media only, no cells (positive control).

Substance: GIGAVLKVLATGLPALISWIKAAQQL [MelP5, synthetically evolved gain-of-function variant of melittin, non pH-sensitive macromolecular pore-former]
- macromolecule release ([1]; screen conditions, 1 nmol, all pH values): partial
- release of macromolecule probe (TBD) ([1]; screen conditions, 4 nmol (P:L=1:100)): essentially complete release
- release of small molecule probe (ANTS) ([2]; 4 nmol): essentially complete release

Substance: GIGDVLHELAADLPELQEWIHAAQQL [pHD24]
- dextran release at pH 7 [1]: no activity

Substance: GIGEVLHELADDLPDLQEWIHAAQQL [pHD15]
- apparent pKa of macromolecule leakage (curve midpoints) ([1]; P:L=1:200, 1 mM POPC vesicles, 40 kDa dextran): lowest apparent pKa value
- dextran release at pH 7 [1]: no activity

Substance: GIGEVLHELAEGLPELQEWIHAAQQL [pHD108]
- effective pKa of transition from random coil to α-helical structure [3]: around 5.5
- toxicity to mammalian cells [4]: did not exhibit toxicity

Substance: Triton X-100
- release of macromolecule probe (TBD) ([1]; screen conditions, 0.1% v/v): essentially complete release
- release of small molecule probe (ANTS) ([2]; 0.1% v/v): essentially complete release
